Source: patent publication US12251407B2, “Use of Megamonas funiformis in preventing and/or treating metabolic diseases” (BGI SHENZHEN, priority 2018, dated 2025)
Marks after values point to notes of the source that are not given here.

Assays:
AF24-28AC = test: Antibiotic sensitivity of AF24-28AC, drug sensitive paper method; format: cell-based, Megamonas funiformis; details: for Diameter of inhibition zone: antibiotic susceptibility papers on AF24-28AC plates, 37° C., 48 hours; for Sensitivity of AF24-28AC to the antibiotic (resistant / sensitive): drug sensitive paper method
Description: The sensitivity of AF24-28AC to 20 common antibiotics was tested by the drug sensitive paper method. 100 μl of AF24-28AC bacterial solution cultured to the logarithmic phase was spread plated. Antibiotic susceptibility papers (purchased from Hangzhou Microbial Reagent Co. LTD) were affixed on the medium surface of plates, cultured at 37° C. for 48 hours, after which the size of inhibition zone was measured.

T2D mice model [1] = test: T2D animal model (STZ plus high-fat feed), body weight; format: in vivo, C57bL/6 mice; details: gavage
Description: (§1) The T2D animal model is constructed by using C57bL/6 mice (purchased from Guangdong Medical Experimental Animal Center) at 8 weeks old and 20±2 g of body weight. The mice are housed in a specific pathogen free (SPF) environment and adaptively fed for 1 week, followed by grouping and modeling. The T2D animal model is induced by injection of streptozotocin (STZ) along with feeding high-fat feed, and the mice having a fasting blood glucose (FBG) reaching 10 mM/L can be used as a T2D mice model. Fifty mice selected for experiments are randomly divided into 5 groups. • Model group: the T2D mice model was administered with saline solution by gavage; • Bacterial agent group 1: the T2D mice model was administered with the DSM 19343 bacterial solution (1×10^8 cfu/m1) by gavage; • Bacterial agent group 2: the T2D mice model was administered with the AF24-28AC bacterial solution (1×10^8 cfu/m1) by gavage; • Bacterial agent group 3: the T2D mice model was administered with the JCM 14723 bacterial solution (1×10^8 cfu/m1) by gavage; • Metformin treatment group: the T2D mice model was treated with the positive drug metformin.
(§2) The experiment was carried out based on the different groups. After the construction of T2D mice model (i.e., FBG>10), the treatment was started and lasted for 2 months. The food intake amount and body weight of mice were recorded daily. Blood of mice was collected from the tail vein every week for detection of fasting blood glucose. The oral glucose tolerance test (OGTT) of mice was measured at week 4 of treatment and at the end of the experiment.

T2D mice model [2] = test: T2D animal model, fasting blood glucose; format: in vivo, C57bL/6 mice; details: tail vein blood
Description: as §1, §2

T2D mice model [3] = test: T2D animal model, oral glucose tolerance test (OGTT); format: in vivo, C57bL/6 mice
Description: as §1, §2

## CCN1CCN(C(=O)N[C@@H](C(=O)N[C@@H]2C(=O)N3[C@@H]2SC(C)(C)[C@@H]3C(=O)O)c2ccccc2)C(=O)C1=O [Piperacillin]
AF24-28AC
  Diameter of inhibition zone: 1.2 cm

## CC1(C)S[C@@H]2[C@H](NC(=O)C(C(=O)O)c3ccccc3)C(=O)N2[C@H]1C(=O)O (some centres unmarked) [Carbenicillin]
AF24-28AC
  Diameter of inhibition zone: 1.2 cm

## CC(C)(O/N=C(\C(=O)N[C@@H]1C(=O)N2C(C(=O)[O-])=C(C[n+]3ccccc3)CS[C@H]12)c1csc(N)n1)C(=O)O [Fortum (Ceftazidime), Ceftazidime]
AF24-28AC
  Diameter of inhibition zone: 2.0 cm

## Neomycin
AF24-28AC
  Diameter of inhibition zone: 1.3 cm

## CC1=C(C(=O)O)N2C(=O)[C@@H](NC(=O)[C@H](N)c3ccccc3)[C@H]2SC1 [Cefalexin]
AF24-28AC
  Diameter of inhibition zone: 2.2 cm

## CC1(C)S[C@@H]2[C@H](NC(=O)[C@H](N)c3ccccc3)C(=O)N2[C@H]1C(=O)O [Ampicillin]
AF24-28AC
  Diameter of inhibition zone: 1.0 cm

## C[C@H]1c2cccc(O)c2C(=O)C2=C(O)[C@]3(O)C(=O)C(C(N)=O)=C(O)[C@@H](N(C)C)[C@@H]3[C@@H](O)[C@@H]21 [Doxycycline]
AF24-28AC
  Diameter of inhibition zone: 4.0 cm

## Penicillin
AF24-28AC
  Diameter of inhibition zone: 0.0 cm
  Sensitivity of AF24-28AC to the antibiotic (resistant / sensitive): resistant

## CC1=C(C(=O)O)N2C(=O)[C@@H](NC(=O)[C@H](N)C3=CCC=CC3)[C@H]2SC1 [Cefradine]
AF24-28AC
  Diameter of inhibition zone: 0.8 cm

## CO/N=C(\C(=O)N[C@@H]1C(=O)N2C(C(=O)O)=C(CSc3nc(=O)c(=O)[nH]n3C)CS[C@H]12)c1csc(N)n1 [Ceftriaxone Sodium]
AF24-28AC
  Diameter of inhibition zone: 1.0 cm

## Gentamicin
AF24-28AC
  Diameter of inhibition zone: 1.7 cm

## CN(C)[C@@H]1C(O)=C(C(N)=O)C(=O)[C@@]2(O)C(O)=C3C(=O)c4c(O)cccc4[C@@](C)(O)[C@H]3C[C@@H]12 [Tetracycline]
AF24-28AC
  Diameter of inhibition zone: 4.2 cm

## CO/N=C(\C(=O)N[C@@H]1C(=O)N2C(C(=O)O)=C(COC(N)=O)CS[C@H]12)c1ccco1 [Cefuroxime]
AF24-28AC
  Diameter of inhibition zone: 3.8 cm

## NCC[C@H](O)C(=O)N[C@@H]1C[C@H](N)[C@@H](O[C@H]2O[C@H](CN)[C@@H](O)[C@H](O)[C@H]2O)[C@H](O)[C@H]1O[C@H]1O[C@H](CO)[C@@H](O)[C@H](N)[C@H]1O [Amikacin]
AF24-28AC
  Diameter of inhibition zone: 2.6 cm

## CC[C@H]1OC(=O)[C@H](C)[C@@H](O[C@H]2C[C@@](C)(OC)[C@@H](O)[C@H](C)O2)[C@H](C)[C@@H](O[C@@H]2O[C@H](C)C[C@H](N(C)C)[C@H]2O)[C@](C)(O)C[C@@H](C)C(=O)[C@H](C)[C@@H](O)[C@]1(C)O [Erythromycin]
AF24-28AC
  Diameter of inhibition zone: 1.3 cm

## Cc1onc(-c2ccccc2)c1C(=O)N[C@@H]1C(=O)N2[C@@H]1SC(C)(C)[C@@H]2C(=O)O [Oxacillin]
AF24-28AC
  Diameter of inhibition zone: 0.0 cm
  Sensitivity of AF24-28AC to the antibiotic (resistant / sensitive): resistant

## NC[C@H]1O[C@H](O[C@H]2[C@H](O)[C@@H](O[C@H]3O[C@H](CO)[C@@H](O)[C@H](N)[C@H]3O)[C@H](N)C[C@@H]2N)[C@H](O)[C@@H](O)[C@@H]1O [Kanamycin]
AF24-28AC
  Diameter of inhibition zone: 1.8 cm

## CCN1CCN(C(=O)N[C@@H](C(=O)N[C@@H]2C(=O)N3C(C(=O)O)=C(CSc4nnnn4C)CS[C@H]23)c2ccc(O)cc2)C(=O)C1=O [Cefoperazone]
AF24-28AC
  Diameter of inhibition zone: 0.0 cm
  Sensitivity of AF24-28AC to the antibiotic (resistant / sensitive): resistant

## Cc1nnc(SCC2=C(C(=O)O)N3C(=O)[C@@H](NC(=O)Cn4cnnn4)[C@H]3SC2)s1 [Cefazolin]
AF24-28AC
  Diameter of inhibition zone: 4.0 cm

## CN(C)c1ccc(O)c2c1C[C@H]1C[C@H]3[C@H](N(C)C)C(O)=C(C(N)=O)C(=O)[C@@]3(O)C(O)=C1C2=O [Minocin (Minocycline), Minocycline]
AF24-28AC
  Diameter of inhibition zone: 4.0 cm

## CN(C)C(=N)N=C(N)N [Metformin, metformin]
T2D mice model [1]; Week 1
  Weight change Week 1: 20.33 g
T2D mice model [1]; Week 3
  Weight change Week 3: 22.36 g
T2D mice model [1]; Week 5
  Weight change Week 5: 24.33 g
T2D mice model [1]; Week 7
  Weight change Week 7: 25.86 g
T2D mice model [1]; Week 9, *P<0.05 relative to model group
  Weight change Week 9: 26.53* g
T2D mice model [2]; Week 1
  Fasting blood glucose Week 1: 16.9 mmol/L
T2D mice model [2]; Week 3
  Fasting blood glucose Week 3: 16.0 mmol/L
T2D mice model [2]; Week 5
  Fasting blood glucose Week 5: 14.3 mmol/L
T2D mice model [2]; Week 7
  Fasting blood glucose Week 7: 11.6* mmol/L
T2D mice model [2]; Week 9
  Fasting blood glucose Week 9: 10.3** mmol/L
T2D mice model [3]; 0 minute after glucose by gavage
  Glucose tolerance (OGTT) blood glucose 0 minute: 9.3 mmol/L
T2D mice model [3]; 30 minutes after glucose by gavage
  Glucose tolerance (OGTT) blood glucose 30 minutes: 19.4 mmol/L
T2D mice model [3]; 60 minutes after glucose by gavage
  Glucose tolerance (OGTT) blood glucose 60 minutes: 16.6 mmol/L
T2D mice model [3]; 90 minutes after glucose by gavage
  Glucose tolerance (OGTT) blood glucose 90 minutes: 11.7* mmol/L
T2D mice model [3]; 120 minutes after glucose by gavage
  Glucose tolerance (OGTT) blood glucose 120 minutes: 10.4 mmol/L
